This passage reports TGI and GI50 results from PubChem BioAssay (NCI).

SMILES strings stand for the structures.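 Assay format: 96-well plates, 48-hour exposure. Here, GI50 denotes the concentration required for 50% inhibition of growth. TGI marks complete inhibition of growth.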

Some test systems named below: HT29 colon; OVCAR-5 ovarian; BT-549 breast; KM12 colon; SK-MEL-2 melanoma; ACHN renal; SR leukemia; MDA-MB-231 breast; MALME-3M melanoma; RXF 393 renal.
Holding throughout (assay): NCI-60 cell line screen, 48 h

Consider `CCN(CC)C(=O)COc1cc2c(O)c3c(O)c(C)c4c(c13)C(=O)C(C)(OC=CC(OC)C(C)C(OC(C)=O)C(C)C(O)C(C)C(O)C(C)C=CC=C(C)C(=O)N2)O4` (stereo not given), for which the TGI with HT29 colon, in the assay with OVCAR-5 ovarian, in the assay with BT-549 breast, in the assay with KM12 colon, with SK-MEL-2 melanoma and in the assay on ACHN renal was over 100 µM in each case. Moreover, the TGI in the assay on SR leukemia, in the assay with MDA-MB-231 breast, with MALME-3M melanoma and in the assay with RXF 393 renal was over 100 µM in each case.

For `COc1cc(/C=C/[N+](=O)[O-])cc(OC)c1OC`, the GI50 is 2.2 µM in the assay on HT29 colon; 2.09 µM with OVCAR-5 ovarian; 2.19 µM in the assay on BT-549 breast; 3.68 µM in the assay with KM12 colon; 3.05 µM with SK-MEL-2 melanoma; 1.83 µM in the assay with ACHN renal. For the same compound, the GI50 is 3.36 µM in the assay on SR leukemia, 1.87 µM with MDA-MB-231 breast, 2.29 µM in the assay with MALME-3M melanoma and 1.47 µM with RXF 393 renal. Also, the TGI stood at 4.81 µM with HT29 colon; 5.11 µM with OVCAR-5 ovarian; 4.57 µM in the assay on BT-549 breast; 12.3 µM with KM12 colon; 7.11 µM in the assay on SK-MEL-2 melanoma; 3.46 µM in the assay on ACHN renal. Moreover, the TGI worked out at 12.5 µM in the assay on SR leukemia, 4.86 µM in the assay on MDA-MB-231 breast, 6.06 µM in the assay with MALME-3M melanoma and 2.97 µM in the assay on RXF 393 renal.

For `Oc1c(Cl)cc(Cl)c2cccnc12`, the GI50 was 4.99 µM in the assay with HT29 colon; 8.71 µM in the assay with OVCAR-5 ovarian; 4.12 µM in the assay with BT-549 breast; 4.58 µM with KM12 colon; 3.83 µM in the assay with SK-MEL-2 melanoma; 3.78 µM in the assay with ACHN renal. In addition, the GI50 with SR leukemia was 2.68 µM; in the assay on MDA-MB-231 breast it was 3.04 µM; in the assay with MALME-3M melanoma, 2.78 µM; with RXF 393 renal, 2.25 µM. The TGI stood at 18 µM in the assay on HT29 colon; 43.3 µM in the assay on OVCAR-5 ovarian; 52.7 µM in the assay on BT-549 breast; 16.7 µM in the assay with KM12 colon; 11.5 µM in the assay with SK-MEL-2 melanoma; 40.5 µM in the assay on ACHN renal. Moreover, the TGI with SR leukemia was 9.48 µM; in the assay with MDA-MB-231 breast, 18.3 µM; in the assay with MALME-3M melanoma it was 13.1 µM; in the assay on RXF 393 renal, 7.91 µM.

Turning to `CC(=O)O.CC(=O)O.CC(=O)O.CC(=O)O.[Rh].[Rh]`, the GI50 in the assay with HT29 colon is 21.2 µM; with OVCAR-5 ovarian, 20.5 µM; in the assay with BT-549 breast, 29.5 µM; in the assay with KM12 colon it was 34.8 µM; in the assay with SK-MEL-2 melanoma, 30.7 µM; in the assay on ACHN renal, 24.9 µM. Also, the GI50 with SR leukemia was 21.1 µM; in the assay with MDA-MB-231 breast, 48.6 µM; with MALME-3M melanoma, 7.06 µM; in the assay with RXF 393 renal it was 10.5 µM. Besides, the TGI is 53.6 µM with HT29 colon; 52.4 µM with OVCAR-5 ovarian; 90.3 µM in the assay with BT-549 breast; over 100 µM with KM12 colon; 81.4 µM in the assay on SK-MEL-2 melanoma; over 100 µM with ACHN renal. In addition, the TGI in the assay on SR leukemia is 40.2 µM; in the assay on MDA-MB-231 breast it was over 100 µM; with MALME-3M melanoma it was 37.4 µM; with RXF 393 renal it was 78.3 µM.

Regarding `COc1cc2c(c(OC)c1OC)-c1c(cc3c(c1OC)OCO3)CC(C)C(C)(O)C2OC(=O)c1ccccc1` (stereo not given), the TGI in the assay on HT29 colon was 75.6 µM; in the assay on OVCAR-5 ovarian, over 100 µM; in the assay on BT-549 breast it was over 100 µM; with KM12 colon it was over 100 µM; in the assay with SK-MEL-2 melanoma, 80.5 µM; in the assay on ACHN renal, over 100 µM. Also, the TGI in the assay on SR leukemia was 55.9 µM; in the assay on MDA-MB-231 breast, 57.8 µM; in the assay on MALME-3M melanoma, over 100 µM; in the assay with RXF 393 renal, 86.2 µM.

With `O=NN(CCCl)C(=O)NC1CCC(=O)NC1=O` (stereo not given), the TGI was over 1250 µM in the assay on HT29 colon; over 1210 µM in the assay with OVCAR-5 ovarian; 593 µM in the assay with BT-549 breast; 578 µM in the assay with KM12 colon; 405 µM in the assay with SK-MEL-2 melanoma; over 1250 µM in the assay on ACHN renal. Also, the TGI in the assay with SR leukemia came to 674 µM; in the assay on MDA-MB-231 breast, 674 µM; in the assay with MALME-3M melanoma it was 481 µM; with RXF 393 renal it was 583 µM.

Take `O=C1/C(=C/c2cccc(Br)c2)COc2ccc(O)c(O)c21`: the GI50 is 1.83 µM in the assay with HT29 colon; 1.93 µM with OVCAR-5 ovarian; 2.03 µM in the assay with BT-549 breast; 1.48 µM in the assay on KM12 colon; 1.53 µM in the assay with SK-MEL-2 melanoma; 1.24 µM in the assay on ACHN renal. For the same compound, the GI50 in the assay with SR leukemia was 0.349 µM; in the assay with MDA-MB-231 breast, 1.4 µM; with MALME-3M melanoma it was 1.49 µM; with RXF 393 renal, 1.38 µM. In addition, the TGI in the assay on HT29 colon was 3.62 µM; in the assay with OVCAR-5 ovarian it was 3.74 µM; in the assay on BT-549 breast, 4.35 µM; with KM12 colon, 3.64 µM; in the assay with SK-MEL-2 melanoma it was 3.11 µM; with ACHN renal, 2.5 µM. For the same compound, the TGI amounted to 2.81 µM in the assay on SR leukemia, 3.35 µM in the assay with MDA-MB-231 breast, 3.06 µM with MALME-3M melanoma and 2.84 µM with RXF 393 renal.

`CCN(CC)CCCC(C)Nc1c(-c2ccccc2)cnc2cc(Cl)ccc12` (stereo not given): the GI50 with HT29 colon was 2.74 µM; in the assay on OVCAR-5 ovarian it was 10.5 µM; with BT-549 breast, 8.76 µM; in the assay on KM12 colon, 4.19 µM; with SK-MEL-2 melanoma, 6.56 µM; with ACHN renal, 13 µM. For the same compound, the GI50 in the assay on SR leukemia was 3.14 µM; in the assay with MDA-MB-231 breast, 3.5 µM; in the assay with MALME-3M melanoma it was 1.93 µM; in the assay with RXF 393 renal, 3.36 µM. For the same compound, the TGI with HT29 colon worked out at 11.5 µM; in the assay on OVCAR-5 ovarian, 27 µM; in the assay with BT-549 breast, 22.3 µM; in the assay on KM12 colon, 16 µM; in the assay on SK-MEL-2 melanoma, 13.8 µM; with ACHN renal, 36.6 µM. The TGI in the assay on SR leukemia was over 24.6 µM; in the assay on MDA-MB-231 breast, 13.2 µM; in the assay with MALME-3M melanoma it was 4.62 µM; in the assay with RXF 393 renal it was 11.1 µM.
